Test results published in patent publication US8980851B2, “Methods for bone treatment by modulating an arachidonic acid metabolic or signaling pathway” (Accelalox, Inc., priority 2005, dated 2015).
Like-named read-outs stand apart in the source and are kept apart here.

Legend:
[1] = tested on: fetal rat calvaria (osteoblast) cells; conditions: in vitro; cited from earlier work
mouse calvaria = conditions: in vitro organ culture; cited from earlier work
closed femur fracture [2] = assay: Rat closed femur fracture healing, radiographs (Example 4); type: in vivo, Sprague-Dawley rats; conditions: treated rats vs untreated rats
Method: (§1) Sprague-Dawley rats (3 months old) underwent a standard closed femur fracture procedure as described in the art (Simon et al. Journal of Bone and Mineral Research, 17(6): 963-976 (2002); Bonnarens and Einhorn, Production of a standard closed fracture in laboratory animal bone. Journal of Orthopaedic Research, 2: 97-101 (1984)). The impending fracture was stabilized with an intramedullary stainless steel pin. Beginning 4 hours after fracture the rats were treated with vehicle (1% methylcellulose) or inhibitors of 5-LO suspended in 1% methylcellulose Inhibitor A (NDGA) was administered at 30 mg/kg and Inhibitor B (AA-861) was administered at 5 mg/kg. The day after surgery and continuing until day 21 post-fracture, experimental rats were treated with 2 doses of inhibitor (either A or B), the first dose between […] and then again with another dose 8-10 hours later. Control rats were treated similarly but with carrier only (1% methylcellulose). Three weeks after fracture the rats were anesthetized and high resolution radiographs were made of the fractured femurs using a Packard Faxitron and Kodak MinR2000 mammography film (FIGS. 8A, 8B, and 8C). Five weeks after fracture the rats were sacrificed, femurs resected, and assayed for structural mechanical properties by torsional mechanical testing (FIG. 8D).

closed femur fracture [3] = assay: Torsional mechanical testing of fractured rat femurs (Example 4); type: in vivo, Sprague-Dawley rats; conditions: 5 weeks of healing; for greater peak torque than vehicle treated rats: Inhibitor A 30 mg/kg, Inhibitor B 5 mg/kg, 2 doses daily until day 21; for mode of femur failure in torsional testing (boney union vs non-union): all femurs, vehicle 13% (2 of 15) non-unions
Method: as §1
Torsional mechanical testing was used to measure the peak torque sustained by each femur after 5 weeks of healing.

Saos-2 cells = conditions: cited from earlier work
[4] = tested on: primary rat calvaria (osteoblast) cultures; conditions: in vitro; cited from earlier work
G292 cells = conditions: cited from earlier work
[5] = higher concentration (0.3-1 micromolar)

5-hydroxyeicosatetraenoic acid [Inhibitor 5-HETE]
alkaline phosphatase activity [1]: reduce | bone nodule formation [1]: reduce | BMP2 induced increase in mouse calvaria thickness (mouse calvaria): prevented

CC(Cc1ccc(O)c(O)c1)C(C)Cc1ccc(O)c(O)c1 (stereo not drawn) [Inhibitor A, nordihydroguaiaretic acid]
osteogenesis / fracture healing (FIG. 8, x-rays) (closed femur fracture [2]): accelerated | greater peak torque than vehicle treated rats (closed femur fracture [3]): 22% | mode of femur failure in torsional testing (boney union vs non-union) (closed femur fracture [3]): failed as boney unions

CC1=C(C)C(=O)C(CCCCC#CCCCC#CCO)=C(C)C1=O [Inhibitor B, 2-(12-hydroxydodeca-5,10-diynyl)-3,5,6-trimethyl-1,4-benzoquinone]
osteogenesis / fracture healing (FIG. 8, x-rays) (closed femur fracture [2]): accelerated | proliferation of Saos-2 cells (Saos-2 cells; concentration not given): no effect | greater peak torque than vehicle treated rats (closed femur fracture [3]): 53% | mode of femur failure in torsional testing (boney union vs non-union) (closed femur fracture [3]): failed as boney unions

CCCCC/C=C\C[C@@H](O)/C=C/C=C/C=C\[C@@H](O)CCCC(=O)O [LTB4]
alkaline phosphatase activity [1]: reduce | bone nodule formation [1]: reduce | proliferation of Saos-2 cells (Saos-2 cells; [5]): promote proliferation | BMP2 induced increase in mouse calvaria thickness (mouse calvaria): prevented | proliferation of primary rat osteoblast cultures [4]: reduces proliferation | proliferation of G292 cells (G292 cells; [5]): promote proliferation

CCCCC/C=C\C\C=C/C=C/C=C/[C@@H](SC[C@H](NC(=O)CC[C@H](N)C(=O)O)C(=O)NCC(=O)O)[C@@H](O)CCCC(=O)O [LTC4]
proliferation of Saos-2 cells (Saos-2 cells; concentration not given): no effect | proliferation of primary rat osteoblast cultures [4]: no effect | proliferation of G292 cells (G292 cells; concentration not given): promote proliferation

CCCCC/C=C\C\C=C/C=C/C=C/[C@@H](SC[C@H](N)C(=O)NCC(=O)O)[C@@H](O)CCCC(=O)O [LTD4]
alkaline phosphatase activity [1]: no effect | bone nodule formation [1]: no effect
